Reference: patent US5023364A, “Phenoxyalkylcarboxylic acid derivatives and process for their preparation” (Kyorin Pharmaceutical Co., Ltd., priority 1987, dated 1991)

Tested on: leukotriene D4 -induced bronchoconstriction
Test: Inhibition of bronchoconstriction in guinea pigs (leukotriene D4-induced, modified Konzett-Rossler method)
Assay type: in vivo, Male Hartley guinea pig
Details: p.o., 2 hours before leukotriene D4 challenge (3 μg/kg, i.v.)
Procedure: Inhibition of bronchoconstriction in guinea pigs
Male Hartley guinea pig weighing about 450 g was anesthetized with sodium pentobarbital (30 mg/kg,i.p.), and the changes in transpulmonary pressure was measured by modifying the method of Konzett-Rossler (J. Harvey, et al., J. Pharmacol. Method. 9, 147-155, 1983) under an artificial ventilation. Bronchoconstrictor response was induced by bolus injection of leukotriene D4 (3 μg/kg,i.v.) from jugular vein. Animal was treated with indomethacin (10 mg/kg,i.v.) and propranolol (1 mg/kg,i.v.) before leukotriene D4 challenge. Test compounds suspended in 5% Gum Arabic solution were administered orally 2 hours before leukotriene D4 challenge.

Row | SMILES | Inhibition (%) (1.5 mg/kg) | Inhibition (%) (6.25 mg/kg) | Inhibition (%) (12.5 mg/kg) | Inhibition (%) (50 mg/kg)
1 | CCCc1c(OCCCOc2ccc(C(C)=O)c(OCCCC(=O)O)c2CCC)ccc(C(C)=O)c1O [Example 5, 4-[6-Acetyl-3-[3-(4-acetyl-3-hydroxy-2-propylphenoxy)propoxy]-2-propylphenoxy]butanoic acid] | 27.4 | 41.7 | 59.0 | 82.7
2 | CCCc1c(OCCOc2ccc(C(C)=O)c(OCCCC(=O)O)c2CCC)ccc(C(C)=O)c1O [Example 6, 4-[6-acetyl-3-[2-(4-acetyl-3-hydroxy-2-propylphenoxy)-ethoxy]-2-propylphenoxy]butanoic acid] | – | – | 28.6 | 86.6
3 | CCCc1c(OCCCOc2ccc(C(C)=O)c(OCCCCC(=O)O)c2CCC)ccc(C(C)=O)c1O [Example 7, 5-[6-acetyl-3-[3(4-acetyl-3-hydroxy-2-propylphenoxy)propoxy]-2-propylphenoxy]pentanoic acid] | – | – | 45.2 | 94.8
4 | CCCc1c(OCCCCOc2ccc(C(C)=O)c(OCCCC(=O)O)c2CCC)ccc(C(C)=O)c1O [Example 8, 4-[6-acetyl-3-[4-(4-acetyl-3-hydroxy-2-propylphenoxy)butoxy]-2-propylphenoxy]butanoic acid] | – | – | – | 83.1
5 | CCCc1c(OCCCOc2ccc(C(C)=O)c(OCC(=O)O)c2CCC)ccc(C(C)=O)c1O [Ref. 1, [6-acetyl-3-[3-(4-acetyl3-hydroxy-2-propylphenoxy)propoxy]-2-propylphenoxy]acetic acid, reference compound] | – | – | -12.1 | 56.1
6 | CCCc1c(OCCCCCOc2c(C(C)=O)ccc(OCC(=O)O)c2CCC)ccc(C(C)=O)c1O [Ref. 2, [4Acetyl-3-[5-(4-acetyl-3-hydroxy-2-propylphenoxy)-pentyloxy]-2-propylpheoxy]acetic acid, reference compound] | – | – | – | 16.9
